Measurements from patent EP3076175A1, “DETECTION AND QUANTIFICATION OF O-ACETYL-ADP-RIBOSE AS A READOUT SYSTEM FOR MEASURING THE ACTIVITY OF E.G. SIRTUINS” (Boehringer Ingelheim International GmbH, priority 2015, dated 2016).
Read-outs that look alike come from different tables or passages of the source.

Legend:
[1] = biological target: T1, GST-tagged macro-domain protein (Archaeoglobus fulgidus, UniProt O28751); experiment: Titration curve: competition with biotinylated ADP-ribose for binding to the macro-domain protein (luminescence signal); conditions: rising concentration of competitor against biotinylated ADP-ribose
T1 construct: For the N-terminal GST fusion of AF1521 the gene for residues 1-192 was synthesized; made in house; host or cells: E. coli BL21 Star (DE3) / BL21 Tuner (DE3)
T1 sequence (O28751 1-192): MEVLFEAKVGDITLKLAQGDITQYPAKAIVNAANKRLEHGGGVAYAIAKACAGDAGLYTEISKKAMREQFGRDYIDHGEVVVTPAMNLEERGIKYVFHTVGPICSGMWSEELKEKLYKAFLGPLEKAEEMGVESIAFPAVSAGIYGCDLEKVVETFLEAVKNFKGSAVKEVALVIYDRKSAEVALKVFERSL
Method: (§1) After that 2 µl of an acetylated peptide (final concentration of 10 µM) mixed with NAD^+ (final concentration of 500 µM, dissolved in assay buffer 1) and 2 µl of SIRT enzyme (final concentration of 20 nM for 1x SIRT (100% CTL) and 200 nM for 10x SIRT (1000% CTL), dissolved in assay buffer 1) are added by a Multidrop combi. After an incubation time of 20 min at room temperature 4 µl biotinylated ADP-ribose (final concentration 50 nM, dissolved in assay buffer 2) and 4 µl GST tagged macro-domain protein (final concentration 50 nM, dissolved in assay buffer 2) are added by a Multidrop combi. After another incubation time of 60 min at room temperature 4 µl of acceptor beads and 4 µl of donor beads (final concentration of each bead-type 20 µg/ml, both dissolved in assay buffer 2) are added by a Multidrop combi. The plates are then sealed and incubated in the dark at room temperature for at least 30 min. After the incubation period, the plates are measured using the Envision reader from Perkin Elmer.
Assay was performed as described in example 4 (general SOP) besides the fact that instead of ADP-ribose 2'/3'-O-acetyl-ADP-ribose was used for the titration curve.
Assay was performed as described in example 4 (general SOP) employing non-biotinylated ADP-ribose for the titration curve.

[2] = biological target: T2, SIRT1 (Homo sapiens, UniProt Q96EB6); experiment: Macro-domain protein assay for SIRT modulators (detection of generated 2'/3'-O-acetyl-ADP-ribose, donor/acceptor beads); assay type: biochemical; conditions: 10x SIRT (200 nM), 10 µM compound
T2 construct: made in house; host or cells: E. coli BL21 Star (DE3)
T2 sequence (Q96EB6 183-664): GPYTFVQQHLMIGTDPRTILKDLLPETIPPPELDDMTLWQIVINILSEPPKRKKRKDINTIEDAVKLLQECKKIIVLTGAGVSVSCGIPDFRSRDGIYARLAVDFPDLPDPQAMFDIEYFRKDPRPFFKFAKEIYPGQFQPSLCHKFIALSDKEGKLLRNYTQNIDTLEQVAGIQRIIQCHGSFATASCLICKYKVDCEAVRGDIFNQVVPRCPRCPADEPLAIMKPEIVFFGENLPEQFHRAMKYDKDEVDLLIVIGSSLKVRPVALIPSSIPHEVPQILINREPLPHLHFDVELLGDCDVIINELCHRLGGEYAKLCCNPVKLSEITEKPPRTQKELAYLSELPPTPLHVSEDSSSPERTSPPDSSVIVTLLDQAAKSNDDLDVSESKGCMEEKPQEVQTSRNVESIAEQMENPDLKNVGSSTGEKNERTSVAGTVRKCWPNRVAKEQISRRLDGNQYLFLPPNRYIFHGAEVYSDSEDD
Method: 200 nl of test compound in 100% DMSO (final concentration of compound 10 µM; DMSO 1%) is given in the 384-well plates by a Cybio Cybiwell capillary head pipettor.
as §1, with “Elmer. […]” for “Elmer.”

[3] = biological target: T3, GST-tagged AF1521 (Archaeoglobus fulgidus, UniProt O28751); experiment: Nucleotide ligand binding assay by isothermal calorimetry (ITC); conditions: for ΔG: change in Gibbs free energy of binding; for ΔS: change in entropy
T3 construct: For the N-terminal GST fusion of AF1521 the gene for residues 1-192 was synthesized; made in house; host or cells: E. coli BL21 Star (DE3) / BL21 Tuner (DE3)
T3 sequence (O28751 1-192): T1 sequence (O28751 1-192)
Method: Nucleotide binding assays were performed using isothermal calorimetry (ITC) on a ITC200 (Microcal) at 25°C. Protein was buffer exchanged using PD10 columns (GE Healthcare) into 50 mM Tris pH 7.5; 150 mM NaCl and 1 mM TCEP. Nucleotides were resuspended in ITC buffer and their concentration were determined through absorbance at 260 nm. Macro-domain proteins were used at 50 µM concentration, whereas the nucleotides were used at 500 µM. ITC measurements were performed by 20 successive injections of 2 µl of the nucleotides into 280 µl of AF1521 with a duration of 4 seconds and 150 seconds of spacing. Data analysis was done using the software ORIGIN 7.0 (Microcal).

[4] = ITC at 25°C, protein 50 µM, nucleotide 500 µM, read-out: KD

Nc1ncnc2c1ncn2[C@@H]1O[C@H](COP(=O)(O)OP(=O)(O)OC[C@H]2OC(O)[C@H](O)[C@@H]2O)[C@@H](O)[C@H]1O (some centres unmarked) [ADP-ribose]
luminescence signal [1]: the luminescence signal decreases

O=C(Nc1nccs1)c1cccc2ccc(-c3cccc(OC4CCNCC4)c3)nc12 [EX00001253]
amount of generated 2'/3'-O-acetyl-ADP-ribose [2]: reduces the amount of generated 2'/3'-O-acetyl-ADP-ribose

Cc1ccc(C(=O)Nc2ccc(S(=O)(=O)O)c3cc(S(=O)(=O)O)cc(S(=O)(=O)O)c23)cc1NC(=O)c1cccc(NC(=O)Nc2cccc(C(=O)Nc3cc(C(=O)Nc4ccc(S(=O)(=O)O)c5cc(S(=O)(=O)O)cc(S(=O)(=O)O)c45)ccc3C)c2)c1 [Suramin]
amount of generated 2'/3'-O-acetyl-ADP-ribose [2]: reduces the amount of generated 2'/3'-O-acetyl-ADP-ribose

CC(=O)O[C@@H]1[C@@H](COP(=O)(O)OP(=O)(O)OC[C@H]2O[C@@H](n3cnc4c(N)ncnc43)[C@H](O)[C@@H]2O)OC(O)[C@@H]1O (some centres unmarked) [acetyl ADP-ribose, 2'/3'-O-acetyl-ADP-ribose]
luminescence signal [1]: the luminescence signal decreases | -TΔS ([3]; ITC at 25°C): -2.271 kcal/mol | Kd [3, 4]: 4.14 µM | ΔG ([3]; ITC at 25°C): -7.339 kcal/mol | ΔH ([3]; change in enthalpy, ITC at 25°C): -5.07 kcal/mol | ΔS ([3]; ITC at 25°C): 7,63 cal/mol/K

Nc1ncnc2c1ncn2[C@@H]1O[C@H](COP(=O)(O)OP(=O)(O)OC[C@@H](O)[C@@H](O)[C@@H](O)C=NOCC(=O)NCCOCCOCCOCCOCCNC(=O)CCCC[C@@H]2SC[C@@H]3NC(=O)N[C@@H]32)[C@@H](O)[C@H]1O [biotinylated ADP-ribose]
-TΔS ([3]; ITC at 25°C): 0.383 kcal/mol | Kd [3, 4]: 2.55 µM | Kd ([3]; ITC, read-out: KD value): 2.5 µM | ΔG ([3]; ITC at 25°C): -7.64 kcal/mol | ΔS ([3]; ITC at 25°C): -1,3 cal/mol/K
